# Measured values from patent US20100267792A1, “Topical Compositions Containing Desthiobiotin and its Derivatives and a Method of Treating Skin” (AVON PRODUCTS, INC., priority 2007, published 2010).
# Key:
# [1] = test system: LOXL1 regulatory elements (promoter region of the LOXL1 gene); assay: LOXL1 promoter luciferase-reporter assay; assay type: cell-based; conditions: 0.001% DL-Desthiobiotin, 24 h, human fibrosarcoma line HTI080, LOXL1/pGL3 vector, triplicate tests, p<0.05 compared to vehicle control
# Source text: Vector construction, transfection and expression: The promoter region of the LOXL1 gene was isolated and cloned into the pGL3 Luciferase reporter plasmid (Promega) by standard methods known in the art and according to manufacturer's instructions. The LOXL1/pGL3 vector and the control vector pRL-NULL (Promega), containing no regulatory elements, were contransfected into the human fibrosarcoma line HTI080 using LipofectAMINE™ LTX Reagent (Invitrogen) according to manufacturer's directions. Transfected cells were allowed to recover for 24 h. The culture medium was then replaced with fresh medium containing various concentrations of DL-Desthiobiotin, and the transfected cells cultured for an additional 24 h. The cultures were subsequently washed with PBS and exposed to 100 microlit cell lysis buffer/25 cm^2 culture area and gently shaken at room temperature for 30 min. The culture flasks containing the cell lysate were then immediately placed at −80 °C. Determination of reporter activity: The activity of the reporter gene, firefly luciferase, was determined according to the manufacturer's instructions (Dual-Luciferase® Reporter Assay System, Promega). Briefly, the activity of the reporter gene is determined relative to that of a control vector encoding a second luciferase gene, that from Renilla reniformis. […]
# Fibrillin-1 mRNA = assay: Fibrillin-1 gene expression by quantitative RT-PCR in fibroblasts; assay type: cell-based; conditions: 0.001% DL-Desthiobiotin, 48 h, normal human dermal fibroblasts, QPCR, compared to solvent control, p<0.05
# Experimental: Cell Treatment: Normal human dermal fibroblasts were plated at 10^6 cells/100 mm tissue culture plates in 10 mls of standard growth medium and incubated at 37° C. and 10% CO2. Approximately 24 hours later, cells were dosed with test actives and solvent controls diluted in fresh growth medium and incubated for 48 hours at 37° C. Following 48-hour incubation, cell medium was removed, and 1 ml of TRIzol® reagent was added to lyse the cells in each plate. Cells from each plate were scraped, passed several times through a pipette, and collected into 1.5 ml centrifuge tubes. The cell lysates were incubated for 5 minutes at 15 to 30° C. to permit the complete dissociation of nucleoprotein complexes, and then stored at −80° C. for RNA isolation. RNA Isolation and RT PCR: RNA was isolated using standard procedures and was dissolved in RNase-free water and stored at −80° C. The concentration of total RNA was determined by using Agilent 2100 Bioanalyzer. […] Reverse Transcriptase (RT) reactions were conducted following the manufacturer's instructions provided by Applied Biosystems, Calif. After the RT step, the reactions were stored at −20° C. for QPCR analysis. QPCR was conducted in a total volume of 20 μl. Applied Biosystems (AB) Universal PCR master mix was used. […]
smiles,measurement,setting,value
CC1NC(=O)NC1CCCCCC(=O)O (racemic) [DL-Desthiobiotin],increase in expression of the reporter gene,[1],90%
same,increase in Fibrillin-1 gene expression,Fibrillin-1 mRNA,47.55%
